Reference: ChEMBL document CHEMBL4622963, “Optimization of Nicotinamides as Potent and Selective IRAK4 Inhibitors with Efficacy in a Murine Model of Psoriasis” (ACS Med Chem Lett, 2020)

Key:
[1] = AUC in mouse at 5 mg/kg, po via gavage measured up to 24 hrs by LC-MS analysis; format: ADME, organism-based; design: time < 24 hr, dose 5 mg/kg, route oral; conditions: in vivo
[2] = Stability in mouse liver microsomes assessed as parent compound remaining measured after 10 mins; format: ADME, Microsome; conditions: read-out: Stability
[3] = Volume of distribution at steady state in mouse at 2 mg/kg, iv administered as infusion or 5 mg/kg, po via gavage measured up to 24 hrs by LC-MS analysis; format: ADME, organism-based; conditions: in vivo, read-out: Vdss
[4] = Stability in human liver microsomes assessed as parent compound remaining; format: ADME, Microsome
Mus musculus [5] = organism: Mus musculus; experiment: animal or person; conditions: C57BL/6, po, 144 h, read-out: INH
[6] = target: Tyrosine-protein kinase Lck (Homo sapiens, UniProt P06239); experiment: Inhibition of N-terminal His6-tagged human full length recombinant LCK expressed in baculovirus infected Sf21 cells
[7] = Drug uptake in imiquimod-induced C57BL/6 mouse model of psoriasis at 1 mg/kg, po dosed via gavage twice daily and measured after 8 hrs by LC-MS analysis; format: ADME, organism-based; conditions: in vivo, read-out: Drug uptake
[8] = Drug uptake in imiquimod-induced C57BL/6 mouse model of psoriasis at 10 mg/kg, po dosed via gavage twice daily and measured after 8 hrs by LC-MS analysis; format: ADME, organism-based; conditions: in vivo, read-out: Drug uptake
[9] = target: Mast/stem cell growth factor receptor Kit (Homo sapiens, UniProt P10721); experiment: Inhibition of recombinant N-terminal GST-tagged human cKit (544 to end residues) expressed in baculovirus infected Sf21 cells
[10] = Permeability across apical to basolateral side in human Caco2 cells; conditions: Caco-2
[11] = Oral bioavailability in mouse at 5 mg/kg administered via gavage measured up to 24 hrs by LC-MS analysis; format: ADME, organism-based; conditions: in vivo
[12] = target: T1, Interleukin-1 receptor-associated kinase 4 (Homo sapiens, UniProt Q9NWZ3); experiment: Inhibition of IRAK4 (unknown origin) using FL-IPTSPITTTYFFFKKK peptide and ATP as substrate incubated for 60 mins by fluorescence based caliper assay
T1 sequence (Q9NWZ3 whole entry): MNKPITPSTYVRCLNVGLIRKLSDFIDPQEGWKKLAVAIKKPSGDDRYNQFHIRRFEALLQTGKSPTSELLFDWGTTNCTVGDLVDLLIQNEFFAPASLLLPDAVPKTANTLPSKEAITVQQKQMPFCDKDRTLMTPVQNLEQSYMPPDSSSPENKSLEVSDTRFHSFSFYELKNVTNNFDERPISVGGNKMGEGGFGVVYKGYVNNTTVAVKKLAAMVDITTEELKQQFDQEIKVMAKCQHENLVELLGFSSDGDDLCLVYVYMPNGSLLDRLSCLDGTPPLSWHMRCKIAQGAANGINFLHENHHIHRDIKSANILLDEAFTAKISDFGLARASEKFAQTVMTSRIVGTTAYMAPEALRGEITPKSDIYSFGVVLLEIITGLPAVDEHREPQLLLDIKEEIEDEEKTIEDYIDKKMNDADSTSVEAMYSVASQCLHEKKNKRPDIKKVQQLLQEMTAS

[13] = target: TRAF2 and NCK-interacting protein kinase (Homo sapiens, UniProt Q9UKE5); experiment: Inhibition of human wild type partial length TNIK (D4-K311 residues) expressed in bacterial expression system
[14] = target: T2, Interleukin-1 receptor-associated kinase 3 (Homo sapiens, UniProt Q9Y616); experiment: Inhibition of human wild type partial length IRAK3 (147 to 596 residues) expressed in bacterial expression system
T2 sequence (Q9Y616 whole entry): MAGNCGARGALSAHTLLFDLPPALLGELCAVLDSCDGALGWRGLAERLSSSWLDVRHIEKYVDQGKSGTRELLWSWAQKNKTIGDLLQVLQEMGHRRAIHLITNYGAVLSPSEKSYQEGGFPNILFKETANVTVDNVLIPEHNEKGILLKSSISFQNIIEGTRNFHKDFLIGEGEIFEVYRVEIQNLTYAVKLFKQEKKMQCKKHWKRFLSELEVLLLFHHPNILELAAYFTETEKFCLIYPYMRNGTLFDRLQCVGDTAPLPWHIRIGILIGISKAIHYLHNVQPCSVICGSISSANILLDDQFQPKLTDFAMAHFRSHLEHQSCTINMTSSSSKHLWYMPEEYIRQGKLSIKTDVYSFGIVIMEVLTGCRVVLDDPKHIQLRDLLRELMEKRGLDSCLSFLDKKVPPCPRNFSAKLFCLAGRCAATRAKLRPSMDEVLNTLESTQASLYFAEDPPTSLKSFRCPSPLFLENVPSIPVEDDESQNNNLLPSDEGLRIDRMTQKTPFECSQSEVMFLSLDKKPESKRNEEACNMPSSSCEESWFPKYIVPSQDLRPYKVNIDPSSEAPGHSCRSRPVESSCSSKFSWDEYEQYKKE

[15] = AUC in mouse at 2 mg/kg, iv administered as infusion measured up to 24 hrs by LC-MS analysis; format: ADME, organism-based; design: time < 24 hr, dose 2 mg/kg, route intravenous; conditions: in vivo
[16] = target: T3, Interleukin-1 receptor-associated kinase 4 (Mus musculus) (UniProt Q8R4K2); experiment: In vivo Inhibition of IRAK4 in LTA-treated BALB/c mouse assessed as suppression of IL-6 level in serum at 10 mg/kg by ELISA relative to control; format: functional, organism-based
T3 sequence (whole entry): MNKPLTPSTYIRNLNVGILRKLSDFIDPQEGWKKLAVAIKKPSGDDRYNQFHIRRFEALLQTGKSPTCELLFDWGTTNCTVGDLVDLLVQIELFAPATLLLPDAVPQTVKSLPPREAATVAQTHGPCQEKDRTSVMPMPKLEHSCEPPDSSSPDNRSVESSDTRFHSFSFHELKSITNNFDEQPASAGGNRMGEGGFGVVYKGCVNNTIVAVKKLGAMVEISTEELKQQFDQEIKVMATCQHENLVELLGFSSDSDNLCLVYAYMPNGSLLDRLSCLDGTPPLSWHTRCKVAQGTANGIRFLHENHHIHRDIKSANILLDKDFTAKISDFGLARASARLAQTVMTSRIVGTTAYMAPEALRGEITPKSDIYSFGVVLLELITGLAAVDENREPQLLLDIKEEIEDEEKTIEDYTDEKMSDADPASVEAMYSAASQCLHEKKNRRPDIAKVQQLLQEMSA

[17] = Drug uptake in imiquimod-induced C57BL/6 mouse model of psoriasis at 3 mg/kg, po dosed via gavage twice daily and measured after 8 hrs by LC-MS analysis; format: ADME, organism-based; conditions: in vivo, read-out: Drug uptake
[18] = Drug uptake in imiquimod-induced C57BL/6 mouse model of psoriasis at 0.3 mg/kg, po dosed via gavage twice daily and measured after 2 hrs by LC-MS analysis; format: ADME, organism-based; conditions: in vivo, read-out: Drug uptake
Mus musculus [19] = organism: Mus musculus; experiment: animal or person; conditions: C57BL/6, po, 144 h, read-out: INH; remark: listed apart in the source
[20] = Clearance in mouse at 2 mg/kg, iv administered as infusion or 5 mg/kg, po via gavage measured up to 24 hrs by LC-MS analysis; format: ADME, organism-based; conditions: in vivo
[21] = target: T3, Interleukin-1 receptor-associated kinase 4 (Mus musculus); experiment: In vivo Inhibition of IRAK4 in LTA-treated BALB/c mouse assessed as suppression of IL-6 level in serum at 1 mg/kg by ELISA relative to control; format: functional, organism-based
Mus musculus [22] = organism: Mus musculus; experiment: animal or person; conditions: C57BL/6, po, 144 h, read-out: INH; remark: listed apart in the source

Chain of Tyrosine-protein kinase Lck (P06239 whole entry): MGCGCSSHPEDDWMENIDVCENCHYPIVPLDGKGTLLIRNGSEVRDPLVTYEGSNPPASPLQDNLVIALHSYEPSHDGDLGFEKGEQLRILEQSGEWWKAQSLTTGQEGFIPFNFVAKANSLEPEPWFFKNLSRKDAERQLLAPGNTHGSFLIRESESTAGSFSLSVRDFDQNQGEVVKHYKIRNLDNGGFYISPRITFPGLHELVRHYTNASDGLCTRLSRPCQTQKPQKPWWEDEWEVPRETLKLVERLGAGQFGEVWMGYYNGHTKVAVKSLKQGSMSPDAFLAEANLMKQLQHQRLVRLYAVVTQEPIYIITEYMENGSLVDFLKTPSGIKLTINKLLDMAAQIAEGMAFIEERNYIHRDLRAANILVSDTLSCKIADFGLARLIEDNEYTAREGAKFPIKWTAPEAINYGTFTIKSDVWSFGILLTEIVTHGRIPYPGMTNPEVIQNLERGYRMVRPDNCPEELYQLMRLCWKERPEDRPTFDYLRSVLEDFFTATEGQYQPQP
Chain of Mast/stem cell growth factor receptor Kit (P10721 whole entry): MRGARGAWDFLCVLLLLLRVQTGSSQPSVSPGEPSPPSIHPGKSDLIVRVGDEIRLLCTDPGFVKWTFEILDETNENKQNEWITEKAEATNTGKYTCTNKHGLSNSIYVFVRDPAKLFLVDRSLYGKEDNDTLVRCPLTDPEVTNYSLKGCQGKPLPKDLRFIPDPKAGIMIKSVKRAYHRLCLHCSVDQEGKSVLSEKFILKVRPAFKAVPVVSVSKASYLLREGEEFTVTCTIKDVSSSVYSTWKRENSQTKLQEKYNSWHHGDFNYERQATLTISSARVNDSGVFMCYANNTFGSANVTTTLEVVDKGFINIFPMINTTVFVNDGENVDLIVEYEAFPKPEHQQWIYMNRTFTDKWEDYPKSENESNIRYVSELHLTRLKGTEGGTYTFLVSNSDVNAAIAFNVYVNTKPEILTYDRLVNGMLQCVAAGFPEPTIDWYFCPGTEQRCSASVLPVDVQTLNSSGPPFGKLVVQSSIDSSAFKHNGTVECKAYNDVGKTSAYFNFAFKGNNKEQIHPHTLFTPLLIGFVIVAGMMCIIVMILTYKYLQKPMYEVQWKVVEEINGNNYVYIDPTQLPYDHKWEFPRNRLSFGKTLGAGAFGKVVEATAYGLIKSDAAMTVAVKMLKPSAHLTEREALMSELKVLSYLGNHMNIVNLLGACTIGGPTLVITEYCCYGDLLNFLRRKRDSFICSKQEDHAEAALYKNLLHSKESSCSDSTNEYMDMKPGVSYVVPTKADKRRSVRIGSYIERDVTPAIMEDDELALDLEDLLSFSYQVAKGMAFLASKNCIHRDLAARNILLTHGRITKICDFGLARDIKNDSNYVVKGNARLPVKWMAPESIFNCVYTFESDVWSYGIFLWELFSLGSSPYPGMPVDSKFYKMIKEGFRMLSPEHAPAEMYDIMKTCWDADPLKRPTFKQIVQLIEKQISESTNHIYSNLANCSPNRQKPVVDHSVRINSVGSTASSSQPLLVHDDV
Chain of TRAF2 and NCK-interacting protein kinase (Q9UKE5 whole entry, the tested form may be a part): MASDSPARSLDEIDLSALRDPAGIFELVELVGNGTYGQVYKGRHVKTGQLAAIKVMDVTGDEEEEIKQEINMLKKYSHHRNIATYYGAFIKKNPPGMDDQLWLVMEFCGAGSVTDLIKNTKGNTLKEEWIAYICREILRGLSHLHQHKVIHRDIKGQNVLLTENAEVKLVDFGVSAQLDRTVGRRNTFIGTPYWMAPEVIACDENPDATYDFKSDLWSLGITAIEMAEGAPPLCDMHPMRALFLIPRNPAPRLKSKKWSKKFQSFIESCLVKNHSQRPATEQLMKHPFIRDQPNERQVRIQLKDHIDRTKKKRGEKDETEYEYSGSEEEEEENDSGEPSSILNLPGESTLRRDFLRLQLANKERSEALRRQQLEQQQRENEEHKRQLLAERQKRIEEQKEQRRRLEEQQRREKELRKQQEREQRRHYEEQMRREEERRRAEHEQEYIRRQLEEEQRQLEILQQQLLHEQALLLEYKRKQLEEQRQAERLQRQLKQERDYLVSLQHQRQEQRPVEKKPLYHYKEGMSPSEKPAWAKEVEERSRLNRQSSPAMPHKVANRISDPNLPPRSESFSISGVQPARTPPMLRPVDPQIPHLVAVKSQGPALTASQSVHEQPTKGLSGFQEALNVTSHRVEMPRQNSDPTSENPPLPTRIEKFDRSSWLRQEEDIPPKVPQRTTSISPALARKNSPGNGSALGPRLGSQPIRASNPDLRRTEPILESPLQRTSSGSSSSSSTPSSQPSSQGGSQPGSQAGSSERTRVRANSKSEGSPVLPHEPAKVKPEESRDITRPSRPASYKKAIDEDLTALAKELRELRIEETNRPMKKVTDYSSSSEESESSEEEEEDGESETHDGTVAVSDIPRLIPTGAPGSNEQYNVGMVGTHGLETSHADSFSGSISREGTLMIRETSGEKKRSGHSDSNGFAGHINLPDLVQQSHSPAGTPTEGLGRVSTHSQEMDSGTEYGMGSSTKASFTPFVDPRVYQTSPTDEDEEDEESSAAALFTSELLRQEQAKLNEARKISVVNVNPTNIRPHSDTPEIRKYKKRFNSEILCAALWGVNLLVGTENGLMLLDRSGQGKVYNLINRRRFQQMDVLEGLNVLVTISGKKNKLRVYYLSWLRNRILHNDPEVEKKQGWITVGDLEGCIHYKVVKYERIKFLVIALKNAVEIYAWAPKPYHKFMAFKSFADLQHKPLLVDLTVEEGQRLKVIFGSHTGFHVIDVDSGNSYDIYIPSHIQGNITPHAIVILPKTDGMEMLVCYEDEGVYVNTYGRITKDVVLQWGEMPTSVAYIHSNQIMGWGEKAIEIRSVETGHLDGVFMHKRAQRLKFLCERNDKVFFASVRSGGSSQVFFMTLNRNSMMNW

SMILES: CC(C)Nc1cc(Nc2nc3ccnn3cc2F)ncc1C(=O)NC[C@@H](F)C(C)(C)O
- AUC at 24 h [1]: 2.4 µM·h
- remaining at 10 min [2]: 89%
- Vd [3]: 2 L/kg
- Stability [4]: 93%
- inhibition in vivo at 1 mg/kg (Mus musculus [5]): 27%
- IC50 [6]: > 2000 nM
- concentration at 8 h [7]: 12 nM
- concentration at 8 h [8]: 494 nM
- IC50 [9]: > 2000 nM
- Papp A→B [10]: 21.5 ×10⁻⁶ cm/s
- bioavailability [11]: > 100%
- IC50 [12]: 3.4 nM
- IC50 [13]: 130 nM
- IC50 [14]: 760 nM
- AUC at 24 h [15]: 5 µM·h
- inhibition [16]: 93%
- concentration at 8 h [17]: 31 nM
- concentration at 2 h [18]: 42 nM
- inhibition in vivo at 1 mg/kg (Mus musculus [19]): 17%
- clearance [20]: 15 mL/min/kg
- inhibition [21]: 68%
- inhibition in vivo at 10 mg/kg (Mus musculus [22]): 64%
